Laboratory results published in the supplement of paper PMC10307832.

Tests used:
Experiment in all cases: relative viability (nuclei count vs DMSO), 5 days (fraction); higher = more cells survive
MK-2206 + Navitoclax = compound: NC1(c2ccc(-c3nc4ccn5c(=O)[nH]nc5c4cc3-c3ccccc3)cc2)CCC1 [MK-2206] + CC1(C)CCC(c2ccc(Cl)cc2)=C(CN2CCN(c3ccc(C(=O)NS(=O)(=O)c4ccc(N[C@H](CCN5CCOCC5)CSc5ccccc5)c(S(=O)(=O)C(F)(F)F)c4)cc3)CC2)C1 [Navitoclax] (partner 0.5 µM)
Summary of the method: (§1)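 Lung cancer cell lines in 1536-well plates were dosed by pin tool the day after seeding, either with one drug alone or with a fixed anchor-drug dose plus five library-drug doses (not always all listed) in √10 steps. After 5 days, cells were fixed and their nuclei stained in one step (final 0.05% Triton X-100, 1% formaldehyde, 1 ug/ml Hoechst), then counted on 4× images. Relative viability is the nuclei count in treated wells divided by that in vehicle wells. Values are medians of duplicate plates.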

MK-2206 + Decitabine = compound: NC1(c2ccc(-c3nc4ccn5c(=O)[nH]nc5c4cc3-c3ccccc3)cc2)CCC1 [MK-2206] + Nc1ncn([C@H]2C[C@H](O)[C@@H](CO)O2)c(=O)n1 [Decitabine] (partner 2 µM)
Summary of the method: as §1

Pictilisib + Phenformin = compound: CS(=O)(=O)N1CCN(Cc2cc3nc(-c4cccc5[nH]ncc45)nc(N4CCOCC4)c3s2)CC1 [Pictilisib] + N=C(N)NC(=N)NCCc1ccccc1 [Phenformin] (partner 250 µM)
Summary of the method: as §1

Pictilisib + Lapatinib = compound: CS(=O)(=O)N1CCN(Cc2cc3nc(-c4cccc5[nH]ncc45)nc(N4CCOCC4)c3s2)CC1 [Pictilisib] + CS(=O)(=O)CCNCc1ccc(-c2ccc3ncnc(Nc4ccc(OCc5cccc(F)c5)c(Cl)c4)c3c2)o1 [Lapatinib] (partner 2 µM)
Summary of the method: as §1

MK-2206 + Luminespib = compound: NC1(c2ccc(-c3nc4ccn5c(=O)[nH]nc5c4cc3-c3ccccc3)cc2)CCC1 [MK-2206] + CCNC(=O)c1noc(-c2cc(C(C)C)c(O)cc2O)c1-c1ccc(CN2CCOCC2)cc1 [Luminespib] (partner 0.01 µM)
Summary of the method: as §1

Row | Cell Line | relative viability (MK-2206 + Navitoclax; first compound 0.01 µM) | relative viability (MK-2206 + Navitoclax; first compound 0.03162 µM) | relative viability (MK-2206 + Navitoclax; first compound 0.3162 µM) | relative viability (MK-2206 + Navitoclax; first compound 1 µM) | relative viability (MK-2206 + Decitabine; first compound 0.01 µM) | relative viability (MK-2206 + Decitabine; first compound 0.03162 µM) | relative viability (MK-2206 + Decitabine; first compound 0.3162 µM) | relative viability (MK-2206 + Decitabine; first compound 1 µM) | relative viability (Pictilisib + Phenformin; first compound 0.02 µM) | relative viability (Pictilisib + Phenformin; first compound 0.06325 µM) | relative viability (Pictilisib + Phenformin; first compound 0.6325 µM) | relative viability (Pictilisib + Phenformin; first compound 2 µM) | relative viability (Pictilisib + Lapatinib; first compound 0.02 µM) | relative viability (Pictilisib + Lapatinib; first compound 0.06325 µM) | relative viability (Pictilisib + Lapatinib; first compound 0.6325 µM) | relative viability (Pictilisib + Lapatinib; first compound 2 µM) | relative viability (MK-2206 + Luminespib; first compound 0.01 µM) | relative viability (MK-2206 + Luminespib; first compound 0.03162 µM) | relative viability (MK-2206 + Luminespib; first compound 0.3162 µM) | relative viability (MK-2206 + Luminespib; first compound 1 µM)
1 | NCI-H1437 | 1.07 | 1.16 | 1.18 | 1.09 | 0.603 | 0.559 | 0.562 | 0.521 | 0.315 | 0.321 | 0.256 | 0.297 | 0.768 | 0.859 | 0.605 | 0.313 | 1.13 | 1.13 | 0.855 | 1.27
2 | NCI-H1650 | 1.11 | 1 | 1.06 | 1.02 | 0.465 | 0.419 | 0.441 | 0.469 | 0.492 | 0.318 | 0.247 | 0.176 | 1.02 | 0.806 | 0.672 | 0.51 | 0.185 | 0.182 | 0.215 | 0.183
3 | NCI-H1651 | 0.994 | 1.05 | 1.02 | 0.998 | 0.592 | 0.652 | 0.637 | 0.432 | 0.331 | 0.36 | 0.268 | 0.261 | 0.919 | 0.721 | 0.568 | 0.424 | 0.865 | 0.888 | 0.808 | 0.965
4 | NCI-H1666 | 0.953 | 0.927 | 0.81 | 0.655 | 0.589 | 0.703 | 0.765 | 0.684 | 0.576 | 0.615 | 0.522 | 0.462 | 0.666 | 0.725 | 0.476 | 0.307 | 0.961 | 1.02 | 1.13 | 1.01
5 | NCI-H1734 | 0.848 | 0.85 | 0.584 | 0.681 | 0.527 | 0.516 | 0.469 | 0.447 | 0.427 | 0.362 | 0.271 | 0.197 | 1.1 | 1.11 | 0.653 | 0.41 | 0.194 | 0.168 | 0.193 | 0.148
6 | NCI-H1755 | 1.02 | 0.985 | 0.829 | 0.895 | 0.724 | 0.71 | 0.726 | 0.638 | 0.654 | 0.594 | 0.401 | 0.357 | 1.04 | 1 | 0.93 | 0.537 | 0.411 | 0.636 | 0.469 | 0.346
